Results on 41 compounds are retold here after PubChem BioAssay AID1996.

In brackets after ≈: the same amount, converted by molar mass.

The conditions of this data set: buffer; pH 7.4; 200.0 µM.
In turn, `O=C(c1cccc(S(=O)(=O)Nc2ccc(Br)cc2)c1)N1CCC1` showed a kinetic solubility of 0.0589 mg/mL (≈ 149 µM).
The value for `O=C1CSC(=Nc2cccc(C(=O)O)c2)N1` was above 0.0354 mg/mL; that for `O=C(NCc1cccc(Cl)c1)C1CCCO1` (stereo unspecified) was 0.0313 mg/mL (≈ 131 µM).
The value for `CCOC(=O)C1CCN(CCC(=O)Nc2cc(C)cc(C)c2)CC1` was above 0.0499 mg/mL; that for `O=C(c1cc2ccccc2s1)N1CCOCC1` was above 0.0371 mg/mL.
Next, `O=C(COC(=O)c1ccccc1OCc1ccccc1Cl)NC1CCS(=O)(=O)C1` (stereo unspecified): above 0.0657 mg/mL; `O=C(NNC(=S)NC(=O)c1ccc(F)cc1)c1cccnc1`: above 0.0477 mg/mL; `Nc1nc2ccccc2[nH]1`: above 0.02 mg/mL.
In turn, `N#CCCN(C(=O)CN1c2cccc3cccc(c23)S1(=O)=O)c1ccccc1` registered a kinetic solubility of 0.015 mg/mL (≈ 38.3 µM).
Consider `CC1(C)CC(/C=C/c2ccccc2)=Nc2ccccc2N1`, for which the solubility (kinetic) came to 0.0272 mg/mL (≈ 98.4 µM).
Next, `COc1ccc(C(=O)N2CC(c3ccccc3)CC2=O)cc1` (stereo unspecified): 0.0034 mg/mL (≈ 11.5 µM); `Nc1nc(NCCc2ccccc2)nc(NCc2ccccc2)c1[N+](=O)[O-]`: 0.0002 mg/mL (≈ 0.549 µM); `Cc1sc2ncnc(SCC(=O)N3CCCCC3)c2c1C`: 0.0055 mg/mL (≈ 17.1 µM).
The value for `CN1CCN(C(=O)/C(C#N)=C/c2ccc(F)cc2)CC1.Cl` was above 0.0465 mg/mL.
`O=CN(c1ccccc1)c1ccc2ccccc2c1` registered a kinetic solubility of 0.0142 mg/mL (≈ 57.4 µM).
With `NC(=O)c1ccccc1OCC(=O)Nc1cccnc1Cl`, the kinetic solubility was above 0.0459 mg/mL.
The value for `O=C(Cn1cc([N+](=O)[O-])ccc1=O)N1CCCc2ccccc21` was above 0.047 mg/mL; that for `Nc1cc(=O)[nH]c(SCCSc2ccccc2)n1` was 0.0096 mg/mL (≈ 34.4 µM).
Next, `CCNC(=S)/N=C(/Nc1ccccc1)Nc1nc(C)cc(C)n1`: 0.0008 mg/mL (≈ 2.44 µM).
As for `CC(=O)Nc1cccc(CCc2nc3ccccc3[nH]2)c1`, the solubility (kinetic) was above 0.0419 mg/mL.
On to `CN(C(=O)c1ccc2c(c1)OCO2)C1CCS(=O)(=O)C1` (stereo unspecified), for which the kinetic solubility is above 0.0446 mg/mL.
Next, `CCn1c(C)c(C(=O)NCCc2ccccc2)c2cc(OC)ccc21`: 0.023 mg/mL (≈ 68.4 µM).
Next, `O=C(COC(=O)COc1ccccc1)NCc1ccco1`: above 0.0434 mg/mL.
The value for `O=C(C[n+]1ccc(/C=N/O)cc1)N1CCCCC1.[Cl-]` was above 0.0426 mg/mL; that for `Cc1[nH]c(=O)[nH]c(=O)c1S(=O)(=O)Nc1ccc(F)c([N+](=O)[O-])c1` was above 0.0516 mg/mL; that for `Cn1cnc(S(=O)(=O)N2CCN(c3ccccc3)CC2)c1` was 0.0343 mg/mL (≈ 112 µM).
Turning to `C=CCc1cccc(CNc2c(C)cc(C)cc2C)c1O`, the solubility (kinetic) amounted to 0.0047 mg/mL (≈ 16.7 µM).
In turn, `Cc1ccc(NCCC(=O)c2cccs2)cc1C` came in with a kinetic solubility of 0.0181 mg/mL (≈ 69.8 µM).
In the case of `Cc1cc(=O)[nH]c(SCC(=O)NC2CCCCCC2)n1`, the kinetic solubility is above 0.0443 mg/mL.
Next, `CCOc1ccccc1NC(=O)CCCc1ccc(OC)c(C)c1`: 0.0082 mg/mL (≈ 25 µM); `CC(C)OP(=O)(c1ccc(N(C)C)cc1)C(O)c1cccnc1` (stereo unspecified): above 0.0502 mg/mL.
The value for `CCCNC(=O)CSc1nnc(-c2ccc(F)cc2)o1` was above 0.0443 mg/mL; that for `CCc1cccc2c1NC1(CCCC1)CC2C.Cl` (stereo unspecified) was below 0.0006 mg/mL.
In the case of `CCc1nc2sccc2c(=O)[nH]1`, the kinetic solubility was above 0.027 mg/mL.
Next, `CN(c1ccccc1)S(=O)(=O)c1ccc(C(=O)NCc2ccc(F)cc2)cc1`: 0.0081 mg/mL (≈ 20.3 µM).
`CC(C)N(Cc1ccccc1)C(=O)COC(=O)c1ccc(S(=O)(=O)N2CCOCC2)cc1` displayed a kinetic solubility of 0.0031 mg/mL (≈ 6.73 µM).
Next, `Cn1cnc2cc(NCc3ccccc3O)ccc21`: 0.0369 mg/mL (≈ 146 µM); `O=C(COC(=O)COc1ccc(Cl)cc1)NC1CC1`: above 0.0426 mg/mL.
Turning to `CCOC(=O)C(=O)c1c(-c2ccc(C)cc2)nc2ccccn12`, the kinetic solubility is above 0.0463 mg/mL.
`C#Cc1cccc(C(=O)N2CCCC(Nc3cccc(F)c3)C2)c1` (stereo unspecified): the solubility (kinetic) turned out to be 0.0395 mg/mL (≈ 123 µM).
The value for `CC1=NN(C(=O)c2ccccc2C)C(O)(c2ccc(Cl)cc2)C1` (stereo unspecified) was above 0.0493 mg/mL.
